Measured values from the kinase profiling compilation of Christmann-Franck et al. (2016).

Tests used:
Test in all cases: radiometric filter-binding kinase assay, Kinase HotSpot
Settings in all cases: compound 0.5 µM; ATP 10 µM
[1] = biological target: ACVRL1 (human) (UniProt P37023)
[2] = biological target: AKT1 (human) (UniProt P31749)
[3] = biological target: AURKB (human) (UniProt Q96GD4)
[4] = biological target: BRSK2 (human) (UniProt Q8IWQ3)
[5] = biological target: CAMK2G (human) (UniProt Q13555)
[6] = biological target: CAMKK2 (human) (UniProt Q96RR4)
Chain of CAMKK2 (human) (Q96RR4 whole entry, looked up): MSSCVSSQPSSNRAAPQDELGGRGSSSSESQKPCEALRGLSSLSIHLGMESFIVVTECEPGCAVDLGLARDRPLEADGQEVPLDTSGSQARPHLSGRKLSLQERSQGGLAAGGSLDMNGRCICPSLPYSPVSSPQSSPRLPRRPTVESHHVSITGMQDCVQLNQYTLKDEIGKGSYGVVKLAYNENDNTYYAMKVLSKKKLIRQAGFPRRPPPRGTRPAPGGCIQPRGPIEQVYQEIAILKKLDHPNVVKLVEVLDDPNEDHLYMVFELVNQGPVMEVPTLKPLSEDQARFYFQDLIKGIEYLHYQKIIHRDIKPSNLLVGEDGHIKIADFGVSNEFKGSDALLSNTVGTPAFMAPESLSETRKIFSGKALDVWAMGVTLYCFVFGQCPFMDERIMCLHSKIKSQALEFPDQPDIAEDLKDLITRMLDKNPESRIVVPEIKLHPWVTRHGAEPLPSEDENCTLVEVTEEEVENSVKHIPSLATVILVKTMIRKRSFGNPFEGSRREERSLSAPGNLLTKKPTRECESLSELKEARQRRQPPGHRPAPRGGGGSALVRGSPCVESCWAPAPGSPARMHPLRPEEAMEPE

[7] = biological target: CDC42BPB (human) (UniProt Q9Y5S2)
[8] = biological target: CDK1 CCNA2 (human) (UniProt P06493+P20248)
Chain of CDK1 CCNA2 (human) (P06493 whole entry, looked up): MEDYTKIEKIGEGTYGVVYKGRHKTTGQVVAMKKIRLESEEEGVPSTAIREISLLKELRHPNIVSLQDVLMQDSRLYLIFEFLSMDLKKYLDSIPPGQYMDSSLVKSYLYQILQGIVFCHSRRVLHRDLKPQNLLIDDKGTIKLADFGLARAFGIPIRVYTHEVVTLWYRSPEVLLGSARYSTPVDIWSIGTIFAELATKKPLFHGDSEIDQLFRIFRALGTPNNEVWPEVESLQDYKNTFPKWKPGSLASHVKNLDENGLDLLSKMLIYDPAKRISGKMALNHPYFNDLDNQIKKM
Chain of CDK1 CCNA2 (human) (P20248 whole entry, looked up): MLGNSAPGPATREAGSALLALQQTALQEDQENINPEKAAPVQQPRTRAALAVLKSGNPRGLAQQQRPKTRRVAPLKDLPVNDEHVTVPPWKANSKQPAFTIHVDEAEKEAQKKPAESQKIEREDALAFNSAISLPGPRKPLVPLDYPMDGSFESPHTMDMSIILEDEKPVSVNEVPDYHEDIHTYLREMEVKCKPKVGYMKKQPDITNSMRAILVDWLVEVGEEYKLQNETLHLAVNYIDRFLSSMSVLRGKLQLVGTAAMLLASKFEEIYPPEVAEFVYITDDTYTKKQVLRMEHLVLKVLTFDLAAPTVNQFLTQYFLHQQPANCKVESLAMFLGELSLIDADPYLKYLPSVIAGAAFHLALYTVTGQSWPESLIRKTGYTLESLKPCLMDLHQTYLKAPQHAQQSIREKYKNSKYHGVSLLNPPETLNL

[9] = biological target: CDK2 CCNE1 (human) (UniProt P24941+P24864)
[10] = biological target: CDK4 CCND1 (human) (UniProt P24385+P11802)
[11] = biological target: CDK5 CDK5R1 p35 (human) (UniProt Q00535+Q15078)
[12] = biological target: CHEK1 (human) (UniProt O14757)
[13] = biological target: DDR2 (human) (UniProt Q16832)
[14] = biological target: FGFR4 (human) (UniProt P22455)
[15] = biological target: FLT3 (human) (UniProt P36888)
[16] = biological target: GRK6 (human) (UniProt P43250)
[17] = biological target: GSG2 (human) (UniProt Q8TF76)
[18] = biological target: GSK3B (human) (UniProt P49841)
Chain of GSK3B (human) (P49841 whole entry, looked up): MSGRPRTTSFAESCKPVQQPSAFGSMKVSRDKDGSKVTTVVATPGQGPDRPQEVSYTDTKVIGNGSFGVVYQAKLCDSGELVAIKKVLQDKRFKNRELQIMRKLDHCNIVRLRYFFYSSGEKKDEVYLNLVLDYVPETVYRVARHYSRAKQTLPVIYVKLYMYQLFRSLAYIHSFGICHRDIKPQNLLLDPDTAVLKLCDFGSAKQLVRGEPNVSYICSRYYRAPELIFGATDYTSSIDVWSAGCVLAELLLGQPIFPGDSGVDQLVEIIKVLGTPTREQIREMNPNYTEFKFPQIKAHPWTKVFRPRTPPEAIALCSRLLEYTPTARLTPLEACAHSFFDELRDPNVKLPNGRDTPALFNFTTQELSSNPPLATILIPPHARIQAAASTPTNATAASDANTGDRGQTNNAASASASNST

[19] = biological target: HIPK2 (human) (UniProt Q9H2X6)
[20] = biological target: INSR (human) (UniProt P06213)
Chain of INSR (human) (P06213 whole entry, looked up): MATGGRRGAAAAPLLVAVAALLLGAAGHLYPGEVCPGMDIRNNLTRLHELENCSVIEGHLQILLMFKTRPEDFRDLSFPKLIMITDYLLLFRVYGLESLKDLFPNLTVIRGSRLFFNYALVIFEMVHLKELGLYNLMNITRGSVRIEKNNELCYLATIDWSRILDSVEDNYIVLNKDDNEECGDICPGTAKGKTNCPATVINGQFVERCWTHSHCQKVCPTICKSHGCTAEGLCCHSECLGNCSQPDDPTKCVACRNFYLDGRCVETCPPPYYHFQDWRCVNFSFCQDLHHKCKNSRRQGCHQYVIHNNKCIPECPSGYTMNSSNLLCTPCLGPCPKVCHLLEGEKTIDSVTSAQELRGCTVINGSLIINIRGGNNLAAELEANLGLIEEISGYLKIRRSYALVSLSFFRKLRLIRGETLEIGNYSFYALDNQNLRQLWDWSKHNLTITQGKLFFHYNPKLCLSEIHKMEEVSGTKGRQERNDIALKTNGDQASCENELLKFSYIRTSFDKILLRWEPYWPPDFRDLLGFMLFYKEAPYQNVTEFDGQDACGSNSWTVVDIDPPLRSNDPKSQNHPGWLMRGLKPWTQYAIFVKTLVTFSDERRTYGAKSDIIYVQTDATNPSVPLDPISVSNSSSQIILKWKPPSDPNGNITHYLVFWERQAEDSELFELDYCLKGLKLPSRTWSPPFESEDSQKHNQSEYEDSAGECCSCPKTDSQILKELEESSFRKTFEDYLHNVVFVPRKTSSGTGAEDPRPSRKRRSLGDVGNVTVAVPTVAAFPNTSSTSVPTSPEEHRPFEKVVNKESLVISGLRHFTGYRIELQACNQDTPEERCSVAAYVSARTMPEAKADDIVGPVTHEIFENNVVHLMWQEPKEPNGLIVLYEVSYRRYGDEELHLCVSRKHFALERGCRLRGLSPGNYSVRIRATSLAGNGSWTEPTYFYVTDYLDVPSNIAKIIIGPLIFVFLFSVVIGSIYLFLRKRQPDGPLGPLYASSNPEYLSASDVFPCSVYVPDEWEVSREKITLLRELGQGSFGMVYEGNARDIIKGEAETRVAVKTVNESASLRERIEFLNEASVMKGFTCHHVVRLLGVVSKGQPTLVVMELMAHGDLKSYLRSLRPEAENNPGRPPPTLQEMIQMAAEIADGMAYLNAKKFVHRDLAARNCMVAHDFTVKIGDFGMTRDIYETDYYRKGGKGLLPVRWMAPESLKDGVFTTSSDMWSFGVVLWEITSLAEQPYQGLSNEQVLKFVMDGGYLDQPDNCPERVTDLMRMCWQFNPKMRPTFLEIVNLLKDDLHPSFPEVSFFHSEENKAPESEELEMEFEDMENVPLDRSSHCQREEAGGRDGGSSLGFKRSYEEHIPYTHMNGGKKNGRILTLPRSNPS

[21] = biological target: IRAK1 (human) (UniProt P51617)
[22] = biological target: ITK (human) (UniProt Q08881)
[23] = biological target: MAP2K1 (human) (UniProt Q02750)
[24] = biological target: MAP3K10 (human) (UniProt Q02779)
[25] = biological target: MAP3K2 (human) (UniProt Q9Y2U5)
[26] = biological target: MAP3K9 (human) (UniProt P80192)
[27] = biological target: MAPK11 (human) (UniProt Q15759)
[28] = biological target: MAPK14 (human) (UniProt Q16539)
[29] = biological target: MATK (human) (UniProt P42679)
[30] = biological target: NEK11 (human) (UniProt Q8NG66)
[31] = biological target: NLK (human) (UniProt Q9UBE8)
Chain of NLK (human) (Q9UBE8 whole entry, looked up): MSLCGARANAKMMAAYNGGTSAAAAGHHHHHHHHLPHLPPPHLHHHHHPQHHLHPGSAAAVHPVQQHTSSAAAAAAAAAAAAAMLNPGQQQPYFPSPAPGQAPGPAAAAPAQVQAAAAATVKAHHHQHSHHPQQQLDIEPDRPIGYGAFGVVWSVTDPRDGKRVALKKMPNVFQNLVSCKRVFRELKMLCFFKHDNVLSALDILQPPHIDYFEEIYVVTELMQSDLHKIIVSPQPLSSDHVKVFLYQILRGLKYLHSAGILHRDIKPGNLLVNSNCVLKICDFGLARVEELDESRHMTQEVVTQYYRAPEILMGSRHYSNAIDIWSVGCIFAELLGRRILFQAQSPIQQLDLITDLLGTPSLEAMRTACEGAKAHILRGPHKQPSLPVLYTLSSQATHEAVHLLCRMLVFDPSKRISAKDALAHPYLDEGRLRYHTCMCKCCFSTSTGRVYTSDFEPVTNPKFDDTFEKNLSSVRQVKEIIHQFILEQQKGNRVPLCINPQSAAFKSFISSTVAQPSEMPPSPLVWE

[32] = biological target: PASK (human) (UniProt Q96RG2)
[33] = biological target: PIM3 (human) (UniProt Q86V86)
[34] = biological target: PLK1 (human) (UniProt P53350)
[35] = biological target: RPS6KA5 KD2 (human) (UniProt O75582)
[36] = biological target: SRMS (human) (UniProt Q9H3Y6)
[37] = biological target: SRPK1 (human) (UniProt Q96SB4)
[38] = biological target: STK39 (human) (UniProt Q9UEW8)
[39] = biological target: STK4 (human) (UniProt Q13043)
[40] = biological target: TNK2 (human) (UniProt Q07912)
[41] = biological target: TSSK1B (human) (UniProt Q9BXA7)
[42] = biological target: TXK (human) (UniProt P42681)

Chain of AKT1 (human) (P31749 whole entry, looked up): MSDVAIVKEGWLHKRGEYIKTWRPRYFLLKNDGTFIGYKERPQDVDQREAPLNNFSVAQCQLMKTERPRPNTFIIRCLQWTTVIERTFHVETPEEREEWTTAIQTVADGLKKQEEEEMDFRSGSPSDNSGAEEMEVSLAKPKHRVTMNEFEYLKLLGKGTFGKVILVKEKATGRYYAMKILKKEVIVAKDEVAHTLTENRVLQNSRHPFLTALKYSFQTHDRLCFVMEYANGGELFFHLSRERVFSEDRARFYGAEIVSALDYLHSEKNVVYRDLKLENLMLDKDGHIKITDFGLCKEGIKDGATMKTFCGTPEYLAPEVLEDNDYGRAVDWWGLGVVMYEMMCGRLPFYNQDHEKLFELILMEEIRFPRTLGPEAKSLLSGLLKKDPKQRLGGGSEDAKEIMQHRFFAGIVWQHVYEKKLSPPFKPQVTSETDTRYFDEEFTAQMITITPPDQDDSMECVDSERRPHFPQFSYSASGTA
Chain of ACVRL1 (human) (P37023 whole entry, looked up): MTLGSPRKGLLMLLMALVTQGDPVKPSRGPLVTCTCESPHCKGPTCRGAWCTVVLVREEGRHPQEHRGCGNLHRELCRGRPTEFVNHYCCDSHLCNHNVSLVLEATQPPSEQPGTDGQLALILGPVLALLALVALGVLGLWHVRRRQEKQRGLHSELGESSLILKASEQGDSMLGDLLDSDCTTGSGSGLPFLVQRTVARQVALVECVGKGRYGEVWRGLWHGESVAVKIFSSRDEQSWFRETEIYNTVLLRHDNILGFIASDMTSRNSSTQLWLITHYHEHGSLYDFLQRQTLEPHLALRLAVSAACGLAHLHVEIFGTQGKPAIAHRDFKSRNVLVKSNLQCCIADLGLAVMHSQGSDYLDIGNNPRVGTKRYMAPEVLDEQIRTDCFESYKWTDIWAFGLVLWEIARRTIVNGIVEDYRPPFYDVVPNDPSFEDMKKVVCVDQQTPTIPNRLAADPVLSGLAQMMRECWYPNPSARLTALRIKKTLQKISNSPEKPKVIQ

SMILES: CSc1nc(-c2ccc(F)cc2)c(-c2ccnc(NC(C)c3ccccc3)c2)[nH]1 (stereo not drawn)
- residual activity [1]: 92.2%
- residual activity [2]: 101%
- residual activity [3]: 98.4%
- residual activity [4]: 94.8%
- residual activity [5]: 102%
- residual activity [6]: 84%
- residual activity [7]: 98.8%
- residual activity [8]: 78%
- residual activity [9]: 88%
- residual activity [10]: 109%
- residual activity [11]: 101%
- residual activity [12]: 101%
- residual activity [13]: 89.8%
- residual activity [14]: 102%
- residual activity [15]: 92.8%
- residual activity [16]: 79.8%
- residual activity [17]: 96.3%
- residual activity [18]: 97.9%
- residual activity [19]: 99.9%
- residual activity [20]: 100%
- residual activity [21]: 103%
- residual activity [22]: 91.6%
- residual activity [23]: 93.9%
- residual activity [24]: 90.6%
- residual activity [25]: 101%
- residual activity [26]: 101%
- residual activity [27]: 41.7%
- residual activity [28]: 7.64%
- residual activity [29]: 87%
- residual activity [30]: 108%
- residual activity [31]: 30.7%
- residual activity [32]: 95.7%
- residual activity [33]: 95.5%
- residual activity [34]: 99.1%
- residual activity [35]: 97.3%
- residual activity [36]: 104%
- residual activity [37]: 106%
- residual activity [38]: 95%
- residual activity [39]: 89.8%
- residual activity [40]: 78.4%
- residual activity [41]: 73.5%
- residual activity [42]: 93.1%

SMILES: CCCNC(=O)Nc1ccc(Oc2ncnc3cc(OC)c(OC)cc23)cc1Cl
- residual activity [1]: 100%
- residual activity [2]: 93%
- residual activity [3]: 37%
- residual activity [4]: 96.7%
- residual activity [5]: 90.5%
- residual activity [6]: 91.5%
- residual activity [7]: 87.4%
- residual activity [8]: 97.7%
- residual activity [9]: 95.2%
- residual activity [10]: 102%
- residual activity [11]: 98%
- residual activity [12]: 77%
- residual activity [13]: 67.6%
- residual activity [14]: 73.9%
- residual activity [15]: 82.1%
- residual activity [16]: 95%
- residual activity [17]: 99.1%
- residual activity [18]: 91.3%
- residual activity [19]: 97.9%
- residual activity [20]: 92.4%
- residual activity [21]: 106%
- residual activity [22]: 96.9%
- residual activity [23]: 99.2%
- residual activity [24]: 103%
- residual activity [25]: 89.5%
- residual activity [26]: 88.9%
- residual activity [27]: 88.5%
- residual activity [28]: 122%
- residual activity [29]: 96.8%
- residual activity [30]: 101%
- residual activity [31]: 90.7%
- residual activity [32]: 87.7%
- residual activity [33]: 81.3%
- residual activity [34]: 101%
- residual activity [35]: 95.6%
- residual activity [36]: 105%
- residual activity [37]: 102%
- residual activity [38]: 88%
- residual activity [39]: 92.8%
- residual activity [40]: 96.5%
- residual activity [41]: 80.4%
- residual activity [42]: 101%

SMILES: CC(C)n1cnc2c(Nc3cccc(Cl)c3)nc(NCCO)nc21
- residual activity [1]: 103%
- residual activity [2]: 103%
- residual activity [3]: 106%
- residual activity [4]: 95%
- residual activity [5]: 106%
- residual activity [6]: 68.2%
- residual activity [7]: 109%
- residual activity [8]: 78.5%
- residual activity [9]: 37.2%
- residual activity [10]: 77%
- residual activity [11]: 22.7%
- residual activity [12]: 87.1%
- residual activity [13]: 93.3%
- residual activity [14]: 86.5%
- residual activity [15]: 15.1%
- residual activity [16]: 88.8%
- residual activity [17]: 94.7%
- residual activity [18]: 96%
- residual activity [19]: 93.3%
- residual activity [20]: 97.3%
- residual activity [21]: 101%
- residual activity [22]: 96%
- residual activity [23]: 92.8%
- residual activity [24]: 90.3%
- residual activity [25]: 97.6%
- residual activity [26]: 27.2%
- residual activity [27]: 92.2%
- residual activity [28]: 90.7%
- residual activity [29]: 93.3%
- residual activity [30]: 109%
- residual activity [31]: 102%
- residual activity [32]: 92.7%
- residual activity [33]: 90.4%
- residual activity [34]: 44.1%
- residual activity [35]: 87%
- residual activity [36]: 85.1%
- residual activity [37]: 61.7%
- residual activity [38]: 100%
- residual activity [39]: 93.1%
- residual activity [40]: 70.8%
- residual activity [41]: 91.9%
- residual activity [42]: 78.1%

SMILES: Oc1ccc(-c2nc(-c3ccc(F)cc3)c(-c3ccncc3)[nH]2)cc1
- residual activity [1]: 95.4%
- residual activity [2]: 101%
- residual activity [3]: 104%
- residual activity [4]: 101%
- residual activity [5]: 101%
- residual activity [6]: 118%
- residual activity [7]: 103%
- residual activity [8]: 90.9%
- residual activity [9]: 90.6%
- residual activity [10]: 105%
- residual activity [11]: 97.3%
- residual activity [12]: 98.9%
- residual activity [13]: 86.3%
- residual activity [14]: 92.9%
- residual activity [15]: 95.1%
- residual activity [16]: 99.7%
- residual activity [17]: 86.9%
- residual activity [18]: 76.6%
- residual activity [19]: 102%
- residual activity [20]: 91.5%
- residual activity [21]: 123%
- residual activity [22]: 90.9%
- residual activity [23]: 93%
- residual activity [24]: 32.8%
- residual activity [25]: 95%
- residual activity [26]: 53.1%
- residual activity [27]: 32.8%
- residual activity [28]: 7.42%
- residual activity [29]: 90.3%
- residual activity [30]: 80.6%
- residual activity [31]: 46.1%
- residual activity [32]: 79.3%
- residual activity [33]: 98.7%
- residual activity [34]: 100%
- residual activity [35]: 107%
- residual activity [36]: 102%
- residual activity [37]: 109%
- residual activity [38]: 94.8%
- residual activity [39]: 105%
- residual activity [40]: 83.2%
- residual activity [41]: 104%
- residual activity [42]: 78.5%
